From the CheMixHub ionic liquid set

Test: xn = mol fraction of the nth substance listed

CCCCCCCCn1cc[n+](C)c1.F[B-](F)(F)F + CC1COC(=O)O1
Settings | viscosity [mPa·s]
303.15 K, 99.7 kPa, x2 = 0.4086 | 38.9

CCCC[N+]1(C)CCCC1.O=S(=O)([N-]S(=O)(=O)C(F)(F)F)C(F)(F)F + CC1COC(=O)O1
Settings | electrical conductivity [S/m] | viscosity [mPa·s]
253.15 K, 101 kPa, x2 = 0.11 | 0.026 | –
253.15 K, 101 kPa, x2 = 0.21 | 0.04 | –
253.15 K, 101 kPa, x2 = 0.47 | 0.108 | –
253.15 K, 101 kPa, x2 = 0.63 | 0.183 | –
253.15 K, 101 kPa, x2 = 0.79 | 0.27 | –
253.15 K, 101 kPa, x2 = 0.89 | 0.283 | –
258.15 K, 101 kPa, x2 = 0.16 | 0.052 | –
258.15 K, 101 kPa, x2 = 0.26 | 0.073 | –
258.15 K, 101 kPa, x2 = 0.58 | 0.199 | –
263.15 K, 101 kPa, x2 = 0.05 | 0.053 | –
263.15 K, 101 kPa, x2 = 0.37 | 0.14 | –
263.15 K, 101 kPa, x2 = 0.53 | 0.225 | –
268.15 K, 101 kPa, x2 = 0.68 | 0.418 | –
273.15 K, 101 kPa, x2 = 0 | 0.109 | –
273.15 K, 101 kPa, x2 = 0.26 | 0.195 | –
273.15 K, 101 kPa, x2 = 0.42 | 0.281 | –
273.15 K, 101 kPa, x2 = 0.74 | 0.535 | –
278.15 K, 101 kPa, x2 = 0.26 | 0.253 | –
278.15 K, 101 kPa, x2 = 0.95 | 0.504 | –
283.15 K, 101 kPa, x2 = 0.05 | 0.212 | –
283.15 K, 101 kPa, x2 = 0.16 | 0.257 | –
283.15 K, 101 kPa, x2 = 0.37 | 0.382 | –
283.15 K, 101 kPa, x2 = 0.58 | 0.557 | –
283.15 K, 101 kPa, x2 = 0.68 | 0.654 | –
283.15 K, 101 kPa, x2 = 0.89 | 0.698 | –
283.15 K, 101 kPa, x2 = 0.95 | 0.566 | –
283.15 K, 101 kPa, x2 = 0.97 | 0.458 | –
288.15 K, 101 kPa, x2 = 0.26 | 0.384 | –
288.15 K, 101 kPa, x2 = 0.47 | 0.547 | –
288.15 K, 101 kPa, x2 = 0.74 | 0.787 | –
288.15 K, 101 kPa, x2 = 0.79 | 0.817 | –
293.15 K, 100 kPa, x2 = 0.8 | 0.93 | 7.8
293.15 K, 101 kPa, x2 = 0 | 0.303 | 86.1
293.15 K, 101 kPa, x2 = 0.53 | 0.689 | 21.23
293.15 K, 101 kPa, x2 = 0.79 | 0.91 | 7.77
298.15 K, 101 kPa, x2 = 0.32 | 0.581 | 28.28
298.15 K, 101 kPa, x2 = 0.37 | – | 25.45
298.15 K, 101 kPa, x2 = 0.42 | 0.678 | 22.81
298.15 K, 101 kPa, x2 = 0.63 | 0.892 | 12.82
303.15 K, 101 kPa, x2 = 0.21 | 0.574 | 29.14
303.15 K, 101 kPa, x2 = 0.42 | 0.771 | 19
303.15 K, 101 kPa, x2 = 0.63 | 1.001 | 10.87
303.15 K, 101 kPa, x2 = 0.74 | 1.091 | 7.36
303.15 K, 101 kPa, x2 = 0.84 | 1.099 | 4.68
308.15 K, 101 kPa, x2 = 0.37 | 0.816 | 17.76
313.15 K, 101 kPa, x2 = 0.21 | 0.75 | 20.27
313.15 K, 101 kPa, x2 = 0.32 | 0.858 | 16.62
313.15 K, 101 kPa, x2 = 0.47 | 1.036 | 12.28
313.15 K, 101 kPa, x2 = 0.79 | 1.3 | 4.64
313.15 K, 101 kPa, x2 = 0.84 | 1.271 | 3.75
313.15 K, 101 kPa, x2 = 0.97 | 0.721 | –
318.15 K, 101 kPa, x2 = 0 | – | 29.72
318.15 K, 101 kPa, x2 = 0.05 | – | 25.14
318.15 K, 101 kPa, x2 = 0.47 | – | 10.64
318.15 K, 101 kPa, x2 = 0.89 | – | 2.77

100 kPa, frequency 0.003 MHz
Settings | electrical conductivity [S/m]
297.1 K, x1 = 0.8 | 0.396
299.8 K, x1 = 0.4 | 0.804
299.9 K, x1 = 0.8 | 0.413
310.9 K, x1 = 0.8 | 0.527
313.5 K, x1 = 0.4 | 0.931
313.7 K, x1 = 0.2 | 1.15
313.7 K, x1 = 0.8 | 0.552
316.2 K, x1 = 0.2 | 1.17
319.3 K, x1 = 0.6 | 0.727
322.3 K, x1 = 0.9 | 0.559
327.6 K, x1 = 0.6 | 0.788
330.3 K, x1 = 0.2 | 1.26
330.6 K, x1 = 0.9 | 0.636
338.9 K, x1 = 0.2 | 1.31
338.9 K, x1 = 0.8 | 0.768
341.4 K, x1 = 0.8 | 0.788
341.6 K, x1 = 0.6 | 0.886
346.8 K, x1 = 0.4 | 1.18
349.7 K, x1 = 0.4 | 1.21

CCCC[P+](CC)(CCCC)CCCC.F[B-](F)(F)F + CC#N
viscosity [mPa·s], 100 kPa
Settings | x1 = 0.004068 | x1 = 0.008179 | x1 = 0.01204 | x1 = 0.01601 | x1 = 0.01998 | x1 = 0.02358 | x1 = 0.02792 | x1 = 0.03171 | x1 = 0.03517 | x1 = 0.03939
293.15 K | 0.373 | 0.392 | 0.411 | 0.431 | 0.452 | 0.473 | 0.497 | 0.521 | 0.542 | 0.57
298.15 K | 0.355 | 0.374 | 0.391 | 0.41 | 0.429 | 0.448 | 0.471 | 0.494 | 0.513 | 0.539
303.15 K | 0.34 | 0.357 | 0.373 | 0.391 | 0.409 | 0.426 | 0.448 | 0.469 | 0.486 | 0.511
308.15 K | 0.326 | 0.342 | 0.356 | 0.372 | 0.389 | 0.406 | 0.426 | 0.446 | 0.462 | 0.486
313.15 K | 0.313 | 0.327 | 0.341 | 0.356 | 0.372 | 0.389 | 0.406 | 0.424 | 0.44 | 0.463
318.15 K | 0.3 | 0.313 | 0.326 | 0.341 | 0.356 | 0.37 | 0.387 | 0.404 | 0.419 | 0.44

CCCC[n+]1ccn(C)c1.[Cl-] + CC#N
298.15 K, 101 kPa, x2 = 0.8012
Settings | electrical conductivity [S/m] | viscosity [mPa·s]
– | 1.53 | 3.52

CCCC[n+]1ccn(C)c1.COP(=O)([O-])OC + CC(=O)O.CC(=O)[O-].CC[NH+](CC)CCO
101 kPa, x2 = 0
Settings | viscosity [mPa·s]
283.15 K | 2142
298.15 K | 609
353.15 K | 36.02
358.15 K | 30.38

CCCC[n+]1ccn(C)c1.COP(=O)([O-])OC + CC(=O)[O-].CCCC[NH2+]CCO
101 kPa, x2 = 0
Settings | viscosity [mPa·s]
278.15 K | 3503
283.15 K | 2142
288.15 K | 1361
293.15 K | 895
298.15 K | 609
303.15 K | 426
308.15 K | 305.8
313.15 K | 224.9
318.15 K | 168.9
323.15 K | 129.4
328.15 K | 100.9
333.15 K | 79.9
338.15 K | 64.25
343.15 K | 52.35
348.15 K | 43.18
353.15 K | 36.02
358.15 K | 30.38
363.15 K | 25.86
368.15 K | 22.22
373.15 K | 19.25

[Cl-].[NH4+] + CC(=O)[O-].CC[n+]1ccn(C)c1
101 kPa
Settings | electrical conductivity [S/m] | viscosity [mPa·s]
298.15 K, x1 = 0.0505 | 0.234 | 172
303.15 K, x1 = 0.0505 | 0.308 | 124.6
313.15 K, x1 = 0.0999 | 0.431 | 91.7
313.15 K, x1 = 0.1702 | 0.341 | 142.8
318.15 K, x1 = 0.0505 | 0.622 | 55.4
323.15 K, x1 = 0.0505 | 0.755 | 44
